Test results from US8802353B2, “Compound for resist and radiation-sensitive composition specification” (Mitsubishi Gas Chemical Company, Inc., priority 2004, dated 2014).

Legend:
Type in all cases: physicochemical
[1] = Glass transition temperature, crystallization temperature and quantity of crystallization heat (DSC); details: for Glass transition temperature Rating / Glass transition temperature / Crystallization temperature: DSC; for Glass transition temperature: 20° C./min, nitrogen gas flow; for Crystallization temperature: exothermic peak; for Glass transition temperature-Crystallization temperature: rating of the difference
Procedure: A sample (about 10 mg) placed in a non-sealed aluminum container was heated to a temperature higher than the melting point at a temperature rising rate of 20° C./min in a nitrogen gas flow (50 ml/min). After being rapidly cooled, the sample was again heated to a temperature higher than the melting point at a temperature rising rate of 20° C./min in a nitrogen gas flow (30 ml/min). After being rapidly cooled, the sample was again heated to 400° C. at a temperature rising rate of 20° C./min in a nitrogen gas flow (30 ml/min), to conduct a differential scanning calorimetric analysis using DSC/TA-50WS manufactured by Shimadzu Corporation. The middle point of the region at which the base line turned discontinuous (the point at which the specific heat reduced to half) was taken as the glass transition temperature (Tg) and the temperature of the exothermic peak after the discontinuous region was taken as the crystallization temperature. The quantity of crystallization heat was determined by the area of the region which was surrounded by the exothermic peak and the base line. The sample was rated A when meeting Tg≧130° C., and rated C when meeting Tg≦130° C. Also, the sample was rated A when meeting (glass transition temperature)−(crystallization temperature)≧70° C., and rated C when meeting (glass transition temperature)-(crystallization temperature)<70° C.

[2] = Adhesion to silicon substrate; parameters: key: rated A when the film was not peeled from the silicon wafer; rated C when peeled off; details: silicon wafer surface-treated with silane coupling agent
Procedure: The resist film formed in (2-2) was tested for its adhesion to the silicon wafer which was surface-treated with a silane coupling agent. The sample was rated A when the film was not peeled from the silicon wafer, and rated C when peeled off.

[3] = Solubility in safety solvent; details: 23° C.; PGMEA, PGME, ethyl lactate, butyl acetate, methyl 3-methoxypropionate, ethyl propionate
Procedure: The solubility of the compound B was tested at 23° C. using propylene glycol monomethyl ether acetate, propylene glycol monomethyl ether, ethyl lactate, butyl acetate, methyl 3-methoxypropionate and ethyl propionate. The sample was rated A when dissolved in any one of the above solvents in a concentration of 5 wt % or more, rated B when dissolved in a concentration of 0.1 to 5 wt %, and rated C when dissolved only in a concentration of less than 0.1 wt %.

[4] = Film-forming property (spin-coated film on silicon wafer); parameters: key: rated C when the film was clouded or its surface was roughened; rated B when the film was partly clouded or roughened; rated A when the film had a good surface flatness without causing clouding; details: 3% by weight solution spin-coated, 110° C. 3 min
Source text: A 3% by weight solution of the compound B or a mixture (compound B and polyphenol A) in PGME/PE (1/2 by weight) or acetone when not dissolved in PGME/PE was spin-coated on a silicon wafer which had been surface-treated with a silane coupling agent, to form a resist film with a thickness of about 0.05 μm.

Structure (SMILES): Oc1ccc(C2(c3ccc(O)cc3)c3ccccc3-c3ccccc32)cc1 [Compound 209, bisphenol fluorene, reference compound]
- Glass transition temperature Rating [1]: C (rated C when meeting Tg≦130° C.)
- Glass transition temperature [1]: 101 °C
- Crystallization temperature [1]: 157.7 °C
- Glass transition temperature-Crystallization temperature [1]: C (rated C when meeting (glass transition temperature)-(crystallization temperature)<70° C.)

Structure (SMILES): Cc1cc(C(c2ccc(-c3cccc(-c4ccc(C(c5cc(C)c(O)cc5C)c5cc(C)c(OC(C)OC6CCCCC6)cc5C)cc4)c3)cc2)c2cc(C)c(O)cc2C)c(C)cc1O (stereo not shown) [Compound 115]
- Adhesion to silicon substrate [2]: A
- Solubility to safety solvent [3]: A (rated A when dissolved in any one of the above solvents in a concentration of 5 wt % or more)
- film-forming property [4]: A

Structure (SMILES): Cc1cc(C(c2ccc3cc(C(c4cc(C)c(O)c(C)c4C)c4cc(C)c(O)c(C)c4C)ccc3c2)c2cc(C)c(O)c(C)c2C)c(C)c(C)c1O [Compound 102]
- Glass transition temperature Rating [1]: A (rated A when meeting Tg≧130° C.)
- Glass transition temperature [1]: 136 °C
- Glass transition temperature-Crystallization temperature [1]: A (rated A when meeting (glass transition temperature)−(crystallization temperature)≧70° C.)

Structure (SMILES): Cc1cc(C(C)(c2ccc(OC(C)OC3CCCCC3)c(C)c2)c2ccc3ccccc3c2)ccc1O (stereo not shown) [Compound 208, reference compound]
- Adhesion to silicon substrate [2]: A
- Solubility to safety solvent [3]: A (rated A when dissolved in any one of the above solvents in a concentration of 5 wt % or more)
- film-forming property [4]: A

Structure (SMILES): CC(C)(C)OC(=O)Oc1ccc(C(C)(C)c2ccc(OC(=O)OC(C)(C)C)cc2)cc1 [Compound 201, reference compound]
- Solubility to safety solvent [3]: C (rated C when dissolved only in a concentration of less than 0.1 wt %)

Structure (SMILES): Cc1cc(C(c2ccc(-c3cccc(-c4ccc(C(c5cc(C)c(O)cc5C)c5cc(C)c(O)cc5C)cc4)c3)cc2)c2cc(C)c(O)cc2C)c(C)cc1O [Compound 106]
- Glass transition temperature Rating [1]: A (rated A when meeting Tg≧130° C.)
- Glass transition temperature [1]: 137 °C
- Glass transition temperature-Crystallization temperature [1]: A (rated A when meeting (glass transition temperature)−(crystallization temperature)≧70° C.)

Structure (SMILES): Cc1cc(C(c2ccc3ccc(C(c4cc(C)c(O)cc4C)c4cc(C)c(O)cc4C)cc3c2)c2cc(C)c(O)cc2C)c(C)cc1O [Compound 104]
- Glass transition temperature Rating [1]: A (rated A when meeting Tg≧130° C.)
- Glass transition temperature [1]: 145 °C
- Crystallization temperature [1]: 287 °C
- Glass transition temperature-Crystallization temperature [1]: A (rated A when meeting (glass transition temperature)−(crystallization temperature)≧70° C.)

Structure (SMILES): Cc1cc(C(c2cc(C(c3cc(C)c(OC(=O)OC(C)(C)C)c(C)c3C)c3cc(C)c(OC(=O)OC(C)(C)C)c(C)c3C)cc(C(c3cc(C)c(OC(=O)OC(C)(C)C)c(C)c3C)c3cc(C)c(OC(=O)OC(C)(C)C)c(C)c3C)c2)c2cc(C)c(OC(=O)OC(C)(C)C)c(C)c2C)c(C)c(C)c1OC(=O)OC(C)(C)C [Compound 117]
- Adhesion to silicon substrate [2]: A
- Solubility to safety solvent [3]: A (rated A when dissolved in any one of the above solvents in a concentration of 5 wt % or more)
- film-forming property [4]: A

Structure (SMILES): Cc1cc(C(c2ccc3cc(C(c4cc(C)c(O)c(C)c4C)c4cc(C)c(OC(C)OC5CCCCC5)c(C)c4C)ccc3c2)c2cc(C)c(O)c(C)c2C)c(C)c(C)c1O (stereo not shown) [Compound 112]
- Adhesion to silicon substrate [2]: A
- Solubility to safety solvent [3]: A (rated A when dissolved in any one of the above solvents in a concentration of 5 wt % or more)
- film-forming property [4]: A

Structure (SMILES): Cc1cc(C(c2cc(C(c3cc(C)c(O)c(C)c3C)c3cc(C)c(O)c(C)c3C)cc(C(c3cc(C)c(O)c(C)c3C)c3cc(C)c(OC(C)OC4CCCCC4)c(C)c3C)c2)c2cc(C)c(O)c(C)c2C)c(C)c(C)c1O (stereo not shown) [Compound 119]
- Adhesion to silicon substrate [2]: A
- Solubility to safety solvent [3]: A (rated A when dissolved in any one of the above solvents in a concentration of 5 wt % or more)
- film-forming property [4]: A

Structure (SMILES): Cc1cc(C(c2ccc3cc(C(c4cc(C)c(O)cc4C)c4cc(C)c(OC(C)OC5CCCCC5)cc4C)ccc3c2)c2cc(C)c(O)cc2C)c(C)cc1O (stereo not shown) [Compound 118]
- Adhesion to silicon substrate [2]: A
- Solubility to safety solvent [3]: A (rated A when dissolved in any one of the above solvents in a concentration of 5 wt % or more)
- film-forming property [4]: A

Structure (SMILES): Cc1cc(C(c2ccc(-c3ccc(-c4ccc(C(c5cc(C)c(O)cc5C)c5cc(C)c(O)cc5C)cc4)cc3)cc2)c2cc(C)c(O)cc2C)c(C)cc1O [Compound 107]
- Glass transition temperature Rating [1]: A (rated A when meeting Tg≧130° C.)
- Glass transition temperature [1]: 147 °C
- Glass transition temperature-Crystallization temperature [1]: A (rated A when meeting (glass transition temperature)−(crystallization temperature)≧70° C.)

Structure (SMILES): Cc1cc(C(c2ccc3ccc(C(c4cc(C)c(O)c(C)c4C)c4cc(C)c(OC(C)OC5CCCCC5)c(C)c4C)cc3c2)c2cc(C)c(O)c(C)c2C)c(C)c(C)c1O (stereo not shown) [Compound 114]
- Adhesion to silicon substrate [2]: A
- Solubility to safety solvent [3]: A (rated A when dissolved in any one of the above solvents in a concentration of 5 wt % or more)
- film-forming property [4]: A

Structure (SMILES): CC(C)(C)OC(=O)Oc1ccc(C(c2ccc(OC(=O)OC(C)(C)C)cc2)c2ccc(OC(=O)OC(C)(C)C)cc2)cc1 [Compound 203, reference compound]
- Adhesion to silicon substrate [2]: A
- Solubility to safety solvent [3]: C (rated C when dissolved only in a concentration of less than 0.1 wt %)
- film-forming property [4]: A

Structure (SMILES): Cc1cc(C(c2ccc(-c3ccc(-c4ccc(C(c5cc(C)c(O)cc5C)c5cc(C)c(OC(C)OC6CCCCC6)cc5C)cc4)cc3)cc2)c2cc(C)c(O)cc2C)c(C)cc1O (stereo not shown) [Compound 116]
- Adhesion to silicon substrate [2]: A
- Solubility to safety solvent [3]: A (rated A when dissolved in any one of the above solvents in a concentration of 5 wt % or more)
- film-forming property [4]: A

Structure (SMILES): Cc1cc(C(C)(c2ccc(O)c(C)c2)c2ccc3ccccc3c2)ccc1O [Compound 206, 1-(2-naphthyl)-1,1-bis(3-methyl-4-hydroxyphenyl)ethane, reference compound]
- Glass transition temperature Rating [1]: C (rated C when meeting Tg≦130° C.)
- Glass transition temperature [1]: 72 °C
- Glass transition temperature-Crystallization temperature [1]: A (rated A when meeting (glass transition temperature)−(crystallization temperature)≧70° C.)

Structure (SMILES): Cc1cc(C(c2ccc3cc(C(c4cc(C)c(O)cc4C)c4cc(C)c(OC(C)OC5CCCCC5)cc4C)ccc3c2)c2cc(C)c(O)cc2C)c(C)cc1O (stereo not shown) [Compound 110]
- Adhesion to silicon substrate [2]: A
- Solubility to safety solvent [3]: A (rated A when dissolved in any one of the above solvents in a concentration of 5 wt % or more)
- film-forming property [4]: A

Structure (SMILES): Cc1cc(O)c(C(C)C)cc1C(c1ccc2cc(C(c3cc(C(C)C)c(O)cc3C)c3cc(C(C)C)c(OC(C)OC4CCCCC4)cc3C)ccc2c1)c1cc(C(C)C)c(O)cc1C (stereo not shown) [Compound 113]
- Adhesion to silicon substrate [2]: A
- Solubility to safety solvent [3]: A (rated A when dissolved in any one of the above solvents in a concentration of 5 wt % or more)
- film-forming property [4]: A

Structure (SMILES): CC(C)(C)OC(=O)Oc1ccc(C2(c3ccc(OC(=O)OC(C)(C)C)cc3)CCCCC2)cc1 [Compound 202, reference compound]
- Solubility to safety solvent [3]: C (rated C when dissolved only in a concentration of less than 0.1 wt %)

Structure (SMILES): Cc1cc(C(c2ccc3cc(C(c4cc(C)c(O)cc4C)c4cc(C)c(O)cc4C)ccc3c2)c2cc(C)c(O)cc2C)c(C)cc1O [Compound 101, tetrakis(2,5-xylenol)-2,6-naphthalenedialdehyde]
- Glass transition temperature Rating [1]: A (rated A when meeting Tg≧130° C.)
- Glass transition temperature [1]: 144 °C
- Glass transition temperature-Crystallization temperature [1]: A (rated A when meeting (glass transition temperature)−(crystallization temperature)≧70° C.)
